These results are taken from US10047086B2, “Imidazopyridines and imidazopyrazines as LSD1 inhibitors” (Incyte Corporation, priority 2014, dated 2018).

The IC50 is the concentration at which inhibition is half-maximal.

The structures appear in SMILES notation.

The test concerns the target LSD-1 enzyme (Homo sapiens (Human), UniProt O60341). Nature of the test: LANCE LSD1/KDM1A demethylase assay (LSD1 histone demethylase biochemical assay). The note with it: 1 nM LSD-1 enzyme, 1 hour preincubation at 25° C., 0.4 μM Biotin-labeled Histone H3 peptide substrate. The method, then:
LSD1 Histone Demethylase Biochemical Assay
LANCE LSD1/KDM1A demethylase assay-10 μL of 1 nM LSD-1 enzyme (ENZO BML-SE544-0050) in the assay buffer (50 mM Tris, pH 7.5, 0.01% Tween-20, 25 mM NaCl, 5 mM DTT) were preincubated for 1 hour at 25° C. with 0.8 μL compound/DMSO dotted in black 384 well polystyrene plates. […] Reactions were stopped by addition of 10 μL 1× LANCE Detection Buffer (PerkinElmer CR97-100) supplemented with 1.5 nM Eu-anti-unmodified H3K4 Antibody (PerkinElmer TRF0404), and 225 nM LANCE Ultra Streptavidin (PerkinElmer TRF102) along with 0.9 mM Tranylcypromine-HCl (Millipore 616431). After stopping the reactions plates were incubated for 30 minutes and read on a PHERAstar FS plate reader (BMG Labtech).
`CN1CCN(Cc2ccc(-c3c(-c4ccc(C#N)cc4)cc(OC[C@@H]4CCNC4)c4cncn34)cc2)CC1` [Example 19, 4-{5-{4-[(4-methylpiperazin-1-yl)methyl]phenyl}-8-[(3R)-pyrrolidin-3-ylmethoxy]imidazo-[1,5-a]pyridin-6-yl}benzonitrile] displayed an IC50 of at most 0.05 µM.
The molecule `Cc1ccc(-c2c(-c3ccc(C#N)cc3)cc(OC[C@@H]3CCN(C)C3)c3cncn23)cc1` [Example 20, 4-(5-(4-methylphenyl)-8-{[(3R)-1-methylpyrrolidin-3-yl]methoxy}imidazo[1,5-a]pyridin-6-yl)benzonitrile] displayed an IC50 of at most 0.05 µM.
For `CN1CCC[C@@H](COc2nc(-c3ccc(C#N)cc3)c(-c3ccc4c(cnn4C)c3)n3cncc23)C1` [Example 23, 4-(5-(1-methyl-1H-indazol-5-yl)-8-{[(3R)-1-methylpiperidin-3-yl]methoxy}imidazo[1,5-a]pyrazin-6-yl)benzonitrile], the IC50 is at most 0.05 µM.
`CN1CCC[C@@H](COc2nc(-c3ccc(C#N)cc3)c(-c3ccc4c(c3)ncn4C)n3cncc23)C1` [Example 28, 4-(5-(1-methyl-1H-benzimidazol-5-yl)-8-{[(3R)-1-methylpiperidin-3-yl]methoxy}imidazo[1,5-a]pyrazin-6-yl)benzonitrile] came in with an IC50 of at most 0.05 µM.
In the case of `CN1CCC[C@@H](COc2nc(-c3ccc(C#N)cc3)c(-c3cnc4c(c3)OCCN4C)n3cncc23)C1` [Example 29, 4-(5-(4-methyl-3,4-dihydro-2H-pyrido[3,2-b][1,4]oxazin-7-yl)-8-{[(3R)-1-methylpiperidin-3-yl]methoxy}imidazo[1,5-a]pyrazin-6-yl)benzonitrile], the IC50 is at most 0.05 µM.
Take `CN1CCC[C@@H](COc2nc(-c3ccc(C#N)cc3)c(-c3cc4oc(=O)n(C)c4cc3F)n3cncc23)C1` [Example 30, 4-(5-(5-fluoro-3-methyl-2-oxo-2,3-dihydro-1,3-benzoxazol-6-yl)-8-{[(3R)-1-methylpiperidin-3-yl]methoxy}imidazo[1,5-a]pyrazin-6-yl)benzonitrile]: the IC50 was at most 0.05 µM.
In turn, `CN1CCC[C@@H](COc2nc(-c3ccc(C#N)cc3)c(-c3ccc4scnc4c3)n3cncc23)C1` [Example 34, (R)-4-(5-(benzo[d]thiazol-5-yl)-8-((1-methylpiperidin-3-yl)methoxy)imidazo[1,5-a]pyrazin-6-yl)benzonitrile] displayed an IC50 of at most 0.05 µM.
`Cc1nc2cc(-c3c(-c4ccc(C#N)cc4)nc(OC[C@@H]4CCCN(C)C4)c4cncn34)ccc2s1` [Example 35, 4-(5-(2-methyl-1,3-benzothiazol-5-yl)-8-{[(3R)-1-methylpiperidin-3-yl]methoxy}imidazo[1,5-a]pyrazin-6-yl)benzonitrile] had an IC50 of at most 0.05 µM.
`CN1CCC[C@@H](COc2nc(-c3ccc(C#N)c(F)c3)c(-c3cnc4c(cnn4C)c3)n3cncc23)C1` [Example 36, 2-fluoro-4-[8-{[(3R)-1-methylpiperidin-3-yl]methoxy}-5-(1-methyl-1H-1-pyrazolo[3,4-b]pyridin-5-yl)imidazo[1,5-a]pyrazin-6-yl]benzonitrile] had an IC50 of at most 0.05 µM.
The molecule `Cn1ncc2cc(-c3c(-c4ccc(C#N)cc4)nc(OC[C@@H]4CCCN(CCO)C4)c4cncn34)cnc21` [Example 37, 4-[8-{[(3R)-1-(2-hydroxyethyl)piperidin-3-yl]methoxy}-5-(1-methyl-1H-1-pyrazolo[3,4-b]pyridin-5-yl)imidazo[1,5-a]pyrazin-6-yl]benzonitrile] showed an IC50 of at most 0.05 µM.
As to `Cn1ncc2cc(-c3c(-c4ccc(C#N)cc4)nc(OC[C@@H]4CCCN(CCC#N)C4)c4cncn34)cnc21` [Example 38, 4-[8-{[(3R)-1-(2-cyanoethyl)piperidin-3-yl]methoxy}-5-(1-methyl-1H-1-pyrazolo[3,4-b]pyridin-5-yl)imidazo[1,5-a]pyrazin-6-yl]benzonitrile], the IC50 is at most 0.05 µM.
In turn, `COCCN1CCC[C@@H](COc2nc(-c3ccc(C#N)cc3)c(-c3cnc4c(cnn4C)c3)n3cncc23)C1` [Example 40, 4-[8-{[(3R)-1-(2-methoxyethyl)piperidin-3-yl]methoxy}-5-(1-methyl-1H-pyrazolo[3,4-b]pyridin-5-yl)imidazo[1,5-a]pyrazin-6-yl]benzonitrile] showed an IC50 of at most 0.05 µM.
With `Cc1ccc(-c2c(-c3ccc(C#N)cc3)nc(OC[C@@H]3CCCN(C)C3)c3cncn23)cc1CO` [Example 42, 4-(5-[3-(hydroxymethyl)-4-methylphenyl]-8-{[(3R)-1-methylpiperidin-3-yl]methoxy}imidazo[1,5-a]pyrazin-6-yl)benzonitrile] the figure was at most 0.05 µM; with `COc1ncc(-c2c(-c3ccc(C#N)cc3)nc(OC[C@@H]3CCCN(C)C3)c3cncn23)cc1F` [Example 43, 4-(5-(5-fluoro-6-methoxypyridin-3-yl)-8-{[(3R)-1-methylpiperidin-3-yl]methoxy}imidazo[1,5-a]pyrazin-6-yl)benzonitrile], at most 0.05 µM.
In turn, `Cc1cc(-c2c(-c3ccc(C#N)cc3)nc(OC[C@@H]3CCCN(C)C3)c3cncn23)cc(F)c1CO` [Example 44, 4-(5-[3-fluoro-4-(hydroxymethyl)-5-methylphenyl]-8-{[(3R)-1-methylpiperidin-3-yl]methoxy}imidazo[1,5-a]pyrazin-6-yl)benzonitrile] displayed an IC50 of at most 0.05 µM.
Regarding `Cc1cc(-c2c(-c3ccc(C#N)cc3)nc(OC[C@@H]3CCCN(C)C3)c3cncn23)ccc1CO` [Example 45, 4-(5-[4-(hydroxymethyl)-3-methylphenyl]-8-{[(3R)-1-methylpiperidin-3-yl]methoxy}imidazo[1,5-a]pyrazin-6-yl)benzonitrile], the IC50 was at most 0.05 µM.
Consider `CN1CCC[C@@H](COc2nc(-c3ccc(C#N)cc3)c(-c3cc(F)c(CO)c(F)c3)n3cncc23)C1` [Example 47, 4-(5-[3,5-difluoro-4-(hydroxymethyl)phenyl]-8-{[(3R)-1-methylpiperidin-3-yl]methoxy}imidazo[1,5-a]pyrazin-6-yl)benzonitrile], for which the IC50 is at most 0.05 µM.
In the case of `COC(=O)N(C)Cc1ccc(-c2c(-c3ccc(C#N)cc3)nc(OC[C@@H]3CCCN(C)C3)c3cncn23)cc1F` [Example 48, methyl [4-(6-(4-cyanophenyl)-8-{[(3R)-1-methylpiperidin-3-yl]methoxy}imidazo[1,5-a]pyrazin-5-yl)-2-fluorobenzyl]methylcarbamate], the IC50 is at most 0.05 µM.
`CN(C)C1CCN(c2nc(-c3ccc(C#N)cc3)c(-c3cnc4c(cnn4C)c3)n3cncc23)CC1` [Example 50, 4-[8-[4-(dimethylamino)piperidin-1-yl]-5-(1-methyl-1H-pyrazolo[3,4-b]pyridin-5-yl)imidazo[1,5-a]pyrazin-6-yl]benzonitrile]: the IC50 was at most 0.05 µM.
Consider `CN(C)C1CCN(c2nc(-c3ccc(C#N)cc3)c(-c3ccc4c(c3)oc(=O)n4C)n3cncc23)CC1` [Example 51, 4-[8-[4-(dimethylamino)piperidin-1-yl]-5-(3-methyl-2-oxo-2,3-dihydro-1,3-benzoxazol-6-yl)imidazo[1,5-a]pyrazin-6-yl]benzonitrile], for which the IC50 was at most 0.05 µM.
In the case of `COc1ccc(-c2c(-c3ccc(C#N)cc3)nc(N3CCC(N(C)C)CC3)c3cncn23)cn1` [Example 53, 4-[8-[4-(dimethylamino)piperidin-1-yl]-5-(6-methoxypyridin-3-yl)imidazo[1,5-a]pyrazin-6-yl]benzonitrile], the IC50 is at most 0.05 µM.
For `CN(C)C1CCN(c2nc(-c3ccc(C#N)cc3)c(-c3ccc(N4CCCC4=O)nc3)n3cncc23)CC1` [Example 54, 4-{8-[4-(dimethylamino)piperidin-1-yl]-5-[6-(2-oxopyrrolidin-1-yl)pyridin-3-yl]imidazo[1,5-a]pyrazin-6-yl}benzonitrile], the IC50 was at most 0.05 µM.
The molecule `CN1CCC[C@@H](COc2cc(-c3ccc(C#N)cc3)c(-c3ccc4nccnc4c3)n3cncc23)C1` [Example 56, (R)-4-(8-((1-methylpiperidin-3-yl)methoxy)-5-(quinoxalin-6-yl)imidazo[1,5-a]pyridin-6-yl)benzonitrile] displayed an IC50 of at most 0.05 µM.
Molecule `CN1CCC[C@@H](COc2cc(-c3ccc(C#N)cc3)c(-c3cnc4c(c3)oc(=O)n4C)n3cncc23)C1` [Example 57, (R)-4-(5-(3-methyl-2-oxo-2,3-dihydrooxazolo[4,5-b]pyridin-6-yl)-8-((1-methylpiperidin-3-yl)methoxy)imidazo[1,5-a]pyridin-6-yl)benzonitrile] yielded an IC50 of at most 0.05 µM.
Take `CN1CCC[C@@H](COc2cc(-c3ccc(C#N)cc3)c(-c3cnc4c(c3)ncn4C)n3cncc23)C1` [Example 58, (R)-4-(5-(3-methyl-3H-imidazo[4,5-b]pyridin-6-yl)-8-((1-methylpiperidin-3-yl)methoxy)imidazo[1,5-a]pyridin-6-yl)benzonitrile]: the IC50 is at most 0.05 µM.
For the molecule `CN1CCC[C@@H](COc2cc(-c3ccc(C#N)cc3)c(-c3cnc4c(c3)OCCO4)n3cncc23)C1` [Example 62, (R)-4-(5-(2,3-dihydro-[1,4]dioxino[2,3-b]pyridin-7-yl)-8-((1-methylpiperidin-3-yl)methoxy)imidazo[1,5-a]pyridin-6-yl)benzonitrile], the IC50 is at most 0.05 µM.
Regarding `CN1CCC[C@@H](COc2cc(-c3ccc(C#N)cc3)c(-c3ccc4c(c3)oc(=O)n4C)n3cncc23)C1` [Example 63, (R)-4-(5-(3-methyl-2-oxo-2,3-dihydrobenzo[d]oxazol-6-yl)-8-((1-methylpiperidin-3-yl)methoxy)imidazo[1,5-a]pyridin-6-yl)benzonitrile], the IC50 was at most 0.05 µM.
